Data on one molecule can be found in article PMC2668075 (PLoS ONE, 2009).

SMILES strings stand for the structures. Peptide text beside a SMILES is read from it. * marks the point of attachment. AMC = Cc1cc(=O)oc2cc(N*)ccc12

The target of this assay is T1, HcDppIVA (Histoplasma ohiense, UniProt A0ACF1AGW9).
T1 construct: gene DPP4
The note with it: pH and temperature series (optimum pH 8, 42 °C); 1 h.

With `Cc1cc(=O)oc2cc(NC(=O)[C@@H]3CCCN3C(=O)CN)ccc12` [Gly-pro-AMC] (H-Gly-Pro-{AMC}), the “fluorescent AMC release assay” value is listed as “We measured DppIV activity of the purified preparation towards Gly-pro-AMC”.
